Legend:
[1] = system: p70S6K, 4E-BP-1 and BAD phosphorylation in Raji cells; assay: Phosphorylation of mTOR downstream targets and BAD, western blot; assay type: cell-based, human
Protocol: The phosphorylation of p70S6K and 4E-BP1, two target molecules of mTOR, was examined as indications of mTOR inhibition.
The effect of rapamycin on BAD phosphorylation in 3-BrOP-treated cells was examined.
Protein lysates were prepared from the control and drug-treated cells, and separated by electrophoresis on 10% SDS-PAGE. […] The antibodies were dilute at 1:1,000 unless indicated otherwise. The bound primary antibodies were detected using appropriate horseradish peroxidase-conjugated secondary antibodies, followed by detection with a SuperSignal enhanced chemiluminescence kit (Pierce, Rockford, Ill.). For sequential blotting, the membranes were stripped with a stripping buffer (Pierce, Rockford, Ill.) followed by re-blotting with proper antibodies.

[2] = system: human lymphoma cells (Raji); assay: Apoptosis, annexin-V/PI flow cytometry; assay type: cell-based; settings: for apoptotic cells: 30 μM in combination with 100 ng/ml rapamycin; for apoptosis: 30 μM
Description: Because the mTOR pathway plays an important role in promoting cellular nutrient metabolism and cell growth, and function to enhance cell survival downstream of the P13K/Akt pathway, the present inventors postulated that a simultaneous inhibition of mTOR and glycolysis, which serve as a major metabolic pathway for ATP generation in cancer cells, would severely impact cellular energy metabolism and have a potent cytotoxic effect against malignant cells. To test this possibility, rapamycin was used as an agent to inhibit mTOR, and glycolycin (3-bromo-2-oxopropionate, abbreviated herein as 3-BrOP) to inhibit glycolysis.
Cell growth inhibition was determined by direct counting of the cells after they were treated with rapamycin, 3-BrOP, or their combination. A Coulter Z2 Particle Count & Size Analyzer was used to determine cell counts at 24 h, 48 h, and 72 h after drug incubation. Apoptosis was measured by flow cytometric analysis of cells stained with annexin V-FITC and propidium iodide (PI). Cells were treated with the indicated compounds under various incubation conditions as described in the figure legends. The samples were collected, washed with cold PBS, and then suspended in annexin-V binding buffer. The cells were stained with annexin V-FITC for 15 min at room temperature, washed, and then stained with PI. The samples were analyzed using a FACSCalibur flow cytometer equipped with CELLQuestPro software (Becton-Dickinson, San Jose, Calif.).

[3] = mouse, in vivo

In the case of `CCCOC(=O)C(=O)CBr` [Glycolycin, propyl 3-bromo-2-oxopropionate], the “BAD phosphorylation at Ser112” value ([1]; 20 μM, 6 hours) was “did not reduce”, the “BAD phosphorylation at Ser112” value ([1]; 40 μM in the presence of rapamycin (100 ng/ml)) was “complete abolished” and the “BAD phosphorylation at Ser112” value ([1]; 40 μM, 6 hours) was “substantial decrease”. For the same compound, the “phosphorylation of P70 S6K at Thr389 and 4E-BP-1 at Ser65” value ([1]; 40 μM, 6 hours) was “some inhibition”, the apoptotic cells ([2]; 24 h) was 38% and the apoptotic cells ([2]; 48 h) was 79%. For the same compound, the apoptosis ([2]; 24 h) was 19%, the apoptosis ([2]; 48 h) was 49% and the toxicity in mice [3] was “No obvious toxicity”. The “toxicity in animals, such as mice” value ([3]; 5 mg/kg) was “no apparent toxicity”.

Source: patent US20060058383A1 (priority 2004, published 2006)
